From PubChem BioAssay (NCI)
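Where inhibition never reached the appropriate level, the endpoint shown equals the highest concentration tested. Otherwise, values were interpolated linearly from a five-concentration, 48-hour dose response in 96-well plates. TGI marks complete inhibition of growth.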

Assays:
Experiment in all cases: inhibition of tumour cell growth, NCI panel, 48 h
[1] = tested on: 786-0 renal
[2] = tested on: A498 renal
[3] = tested on: A549 NSCLC
[4] = tested on: ACHN renal
[5] = tested on: CCRF-CEM leukemia
[6] = tested on: COLO 205 colon
[7] = tested on: DU-145 prostate
[8] = tested on: EKVX NSCLC
[9] = tested on: HCC-2998 colon
[10] = tested on: HCT-116 colon
[11] = tested on: HCT-15 colon
[12] = tested on: HL-60(TB) leukemia
[13] = tested on: HOP-62 NSCLC
[14] = tested on: HOP-92 NSCLC
[15] = tested on: HS 578T breast
[16] = tested on: HT29 colon
[17] = tested on: IGROV1 ovarian
[18] = tested on: K-562 leukemia
[19] = tested on: KM12 colon
[20] = tested on: LOX IMVI melanoma
[21] = tested on: M14 melanoma
[22] = tested on: MALME-3M melanoma
[23] = tested on: MCF7 breast
[24] = tested on: MDA-MB-231 breast
[25] = tested on: MDA-MB-435
[26] = tested on: MDA-N
[27] = tested on: MOLT-4 leukemia
[28] = tested on: NCI-H226 lung
[29] = tested on: NCI-H23 lung
[30] = tested on: NCI-H460 lung
[31] = tested on: NCI-H522 lung
[32] = tested on: NCI/ADR-RES ovarian
[33] = tested on: OVCAR-3 ovarian
[34] = tested on: OVCAR-4 ovarian
[35] = tested on: OVCAR-5 ovarian
[36] = tested on: OVCAR-8 ovarian
[37] = tested on: PC-3 prostate
[38] = tested on: RPMI-8226 leukemia
[39] = tested on: RXF 393 renal
[40] = tested on: SF-268 CNS
[41] = tested on: SF-295 CNS
[42] = tested on: SF-539 CNS
[43] = tested on: SK-MEL-28 melanoma
[44] = tested on: SK-MEL-5 melanoma
[45] = tested on: SK-OV-3 ovarian
[46] = tested on: SN12C renal
[47] = tested on: SNB-19 CNS
[48] = tested on: SNB-75 CNS
[49] = tested on: SR leukemia
[50] = tested on: SW-620 colon
[51] = tested on: T-47D breast
[52] = tested on: TK-10 renal
[53] = tested on: U251 CNS
[54] = tested on: UACC-257 melanoma
[55] = tested on: UACC-62 melanoma
[56] = tested on: UO-31 renal
[57] = tested on: SK-MEL-2 melanoma

Q: What does the source list for `Cc1ccc2c(c1)C(=O)C1(Cc3ccccc3C1=O)C2` (stereo not given)?
A: TGI [1]: > 100 µM; TGI [2]: > 100 µM; TGI [3]: > 100 µM; TGI [4]: > 100 µM; TGI [5]: > 100 µM; TGI [6]: > 100 µM; TGI [7]: > 100 µM; TGI [8]: > 100 µM; TGI [9]: > 100 µM; TGI [10]: > 100 µM; TGI [11]: > 100 µM; TGI [12]: > 100 µM; TGI [13]: > 100 µM; TGI [14]: > 100 µM; TGI [15]: > 100 µM; TGI [16]: > 100 µM; TGI [17]: > 100 µM; TGI [18]: > 100 µM; TGI [19]: > 100 µM; TGI [20]: > 100 µM; TGI [21]: > 100 µM; TGI [22]: > 100 µM; TGI [23]: > 100 µM; TGI [24]: > 100 µM; TGI [25]: > 100 µM; TGI [26]: > 100 µM; TGI [27]: > 100 µM; TGI [28]: > 100 µM; TGI [29]: > 100 µM; TGI [30]: > 100 µM; TGI [31]: > 100 µM; TGI [32]: > 100 µM; TGI [33]: > 100 µM; TGI [34]: > 100 µM; TGI [35]: > 100 µM; TGI [36]: > 100 µM; TGI [37]: > 100 µM; TGI [38]: > 100 µM; TGI [39]: > 100 µM; TGI [40]: > 100 µM; TGI [41]: > 100 µM; TGI [42]: > 100 µM; TGI [43]: > 100 µM; TGI [44]: > 100 µM; TGI [45]: > 100 µM; TGI [46]: > 100 µM; TGI [47]: > 100 µM; TGI [48]: > 100 µM; TGI [49]: > 100 µM; TGI [50]: > 100 µM; TGI [51]: > 100 µM; TGI [52]: > 100 µM; TGI [53]: > 100 µM; TGI [54]: > 100 µM; TGI [55]: > 100 µM; TGI [56]: 39 µM

Q: With `COc1ccc2c(C)cc(=O)oc2c1OC` as the molecule, how does the TGI [1] read?
A: > 100 µM

Q: What about the TGI [2] of the same molecule?
A: > 100 µM

Q: What about the TGI [3] of the same molecule?
A: > 100 µM

Q: And the TGI [4]?
A: > 100 µM

Q: What about the TGI [5] of the same molecule?
A: > 100 µM

Q: What about the TGI [6] of the same molecule?
A: > 100 µM

Q: And the TGI [7]?
A: > 100 µM

Q: And the TGI [8]?
A: > 100 µM

Q: And the TGI [10]?
A: > 100 µM

Q: What about the TGI [11] of the same molecule?
A: > 100 µM

Q: And the TGI [13]?
A: > 100 µM

Q: What about the TGI [15] of the same molecule?
A: > 100 µM

Q: What about the TGI [16] of the same molecule?
A: > 100 µM

Q: And the TGI [17]?
A: > 100 µM

Q: What about the TGI [18] of the same molecule?
A: > 100 µM

Q: What about the TGI [19] of the same molecule?
A: > 100 µM

Q: What about the TGI [20] of the same molecule?
A: > 100 µM

Q: And the TGI [21]?
A: > 100 µM

Q: And the TGI [22]?
A: > 100 µM

Q: What about the TGI [23] of the same molecule?
A: > 100 µM

Q: What about the TGI [24] of the same molecule?
A: > 100 µM

Q: And the TGI [25]?
A: > 100 µM

Q: And the TGI [26]?
A: > 100 µM

Q: And the TGI [27]?
A: > 100 µM

Q: And the TGI [28]?
A: > 100 µM

Q: And the TGI [29]?
A: > 100 µM

Q: What about the TGI [32] of the same molecule?
A: > 100 µM

Q: What about the TGI [33] of the same molecule?
A: > 100 µM

Q: And the TGI [34]?
A: > 100 µM

Q: What about the TGI [35] of the same molecule?
A: > 100 µM

Q: What about the TGI [36] of the same molecule?
A: > 100 µM

Q: And the TGI [37]?
A: > 100 µM

Q: What about the TGI [38] of the same molecule?
A: > 100 µM

Q: And the TGI [40]?
A: > 100 µM

Q: And the TGI [41]?
A: > 100 µM

Q: What about the TGI [57] of the same molecule?
A: > 100 µM

Q: And the TGI [43]?
A: > 100 µM

Q: And the TGI [44]?
A: > 100 µM

Q: And the TGI [45]?
A: > 100 µM

Q: What about the TGI [46] of the same molecule?
A: > 100 µM

Q: What about the TGI [47] of the same molecule?
A: > 100 µM

Q: What about the TGI [48] of the same molecule?
A: > 100 µM

Q: And the TGI [49]?
A: > 100 µM

Q: And the TGI [50]?
A: > 100 µM

Q: What about the TGI [52] of the same molecule?
A: > 100 µM

Q: And the TGI [53]?
A: > 100 µM

Q: And the TGI [54]?
A: > 100 µM

Q: What about the TGI [55] of the same molecule?
A: > 100 µM

Q: And the TGI [56]?
A: > 100 µM
